According to US20050187179A1, “Apoptosis inducing agents and methods” (The Government of the United States of America as …, priority 1998, published 2005):

What was measured:
[1] = tested on: HT-29 human colon cancer cells; set-up: key: +: Compound induces terminal differentiation of the transformed cells; conditions: terminal differentiation; cited from earlier work
[2] = tested on: MEL murine erythroleukemia cells; set-up: key: +: Compound induces terminal differentiation of the transformed cells; conditions: terminal differentiation; cited from earlier work
Transformed cells = conditions: Table 2, hybrid polar compounds; cited from earlier work
[3] = tested on: HL-60 human promyelocytic leukemia cells; set-up: key: +: Compound induces terminal differentiation of the transformed cells; conditions: terminal differentiation; cited from earlier work
MEL cells [4] = conditions: cited from earlier work; for HG cells, % (% of cells hemoglobinized): Table 3, at optimal concentration; for Opt. [ ], μM (Optimal concentration): Table 3
Notch-1 = Notch-1 mRNA and protein expression in MEL cells with HMBA (RT-PCR, western blot); format: cell-based, mouse; conditions: 5 mM HMBA, 4 to 120 hours
Method: Total RNA was extracted from cells using Trizol reagent (Life Technologies). RT-PCR was performed using the Thermostable Reverse Transcriptase RNA PCR kit (Perkin Elmer) according to manufacturer's instructions. Reactions were amplified in a Perkin Elmer 2400 DNA thermal cycler for 40 cycles of denaturation at 94° C. for 1 minute, annealing and extension at 65° C. for 2 minutes. Amplification of mouse primers specific for Notch-1, SEQ ID NO 1, and SEQ ID NO 2, generated a product of 431 bp. Primers specific for GAPDH: sense 5′ TCACCACCATGGAGAAGG 3′ (SEQ ID NO 3) and antisense 5′ […] 3′ (SEQ ID NO 4) generated a 200 bp product. Negative and positive PCR controls were included in every experiment.
To determine whether Notch-1 expression is regulated during HMBA-induced MEL cell differentiation, Notch-1 mRNA levels were analyzed in MEL cells set up at equal density and maintained in culture for 4, 8, 24 or 120 hours in the absence or presence of HMBA.
Notch-1 steady state protein levels were determined by western blot using the polyclonal antibody to Notch-1 (see Example 2). […] Notch-1 steady state protein levels reflected the Notch-1 mRNA pattern of expression. In the presence of HMBA (H), Notch-1 protein was reproducibly evident in the early stages of induction, but gradually disappeared becoming essentially undetectable at 120 hours. […] In uninduced MEL cells (C). […]

MEL cells [5] = experiment: HMBA-induced MEL cell differentiation, benzidine staining for hemoglobin; format: cell-based, mouse; conditions: 5 mM HMBA, at 120 hours
Method: Murine erythroleukemia Friend cells (MEL), were maintained in RPMI supplemented with 10% (v/v) heat inactivated fetal bovine serum (HyClone) and 10^−5 M β-mercaptoethanol (β-ME). To induce differentiation, logarithmically growing cells were plated at 1×10^5 cells/ml in medium containing 5 mM HMBA for 120 hours. Cells were passaged to initial density at 72 hours. Cells were assayed for the presence of hemoglobin (Orkin et al., Proc. Natl. Acad. Sci. USA 1975, 72:98-102) by the addition of 1/10 volume of freshly prepared benzidine reagent (0.4% benzidine base, 2% hydrogen peroxide in 12% acetic acid). Benzidine positive cells were counted in modified Neubauer hemocytometers. Each sample was counted by two independent operators, blinded to the cell treatment, and readings were averaged.
The accumulation of differentiated cells, as determined by benzidine staining, was analyzed during the 120 hours of culture with HMBA (FIG. 8C). There was a steady increase in differentiated cells from 48 hours onwards, that generally reached 35-45%, at 120 hours. […] Cultures were not continued beyond 120 hours, because at this time Notch-1 was reproducibly undetectable.

[6] = patients; cited from earlier work
SY5Y cells = experiment: SY5Y cell survival with S-oligos and antineoplastic agent (CellTiter 96 AQueous assay); format: cell-based, human; conditions: 50 ng/ml agent, S-oligos 25-100 μM, 1 μM RA
Method: SY5Y cells, a neuroblastoma cell line (Example 3) were split into 96 well plates and grown in RPMI 1640 with glutamine, 10% FCS and 1 μM RA. At approximately 60% confluence, the phosphorothioate oligonucleotides (S-oligos, antisense, sense and scrambled; see Example 10) at various concentrations (25, 50, 75 and 100 μM) were added. Subsequently, 50 ng/ml of vinblastine (Sigma, St. Louis Mo., V-1377) was added to half of the wells (based on preliminary dose ranging experiments). Cell survival was measured using Promega's CellTiter 96 AQueous assay, which measures viable cells in the well. Paclitaxel (Sigma, St. Louis Mo., T-1912), another member of the […], was also tested (at 50 ng/ml) using this same assay.

thymocytes = experiment: Apoptosis of thymocytes from Notch-1 antisense transgenic mice after dexamethasone; format: cell-based, mouse; conditions: thymocytes of Notch-1 antisense transgenic mice, pharmacologic dose
Text: A pMAMneo plasmid was used which contained the same insert that was used in the pcDNA 3.1 plasmid that was introduced into the MEL cells. This construct expresses the antisense under a MMTV LTR promoter, which has good basal activity and is stimulated by several steroid hormones, such as estradiol, glucocorticoids and androgens. The plasmid was linearized, purified, and microinjected into mouse embryos which were then implanted into surrogate mothers. Pups were screened for the presence of the transgene by PCR on tail snippets. This was done on two separate instances, which generated one positive founder male and one positive founder female containing Notch-1 antisense in their genomes. The founder animals were separately bred into a C57bl6 background for several generations until homozygous positive mice were obtained which bred true (generated all positive litters).
Pharmacological stimuli were used to induce apoptosis more readily in thymocyte cells from these mice.
Thymocytes undergo differentiation in the thymus, and normally express Notch-1. Spontaneous apoptosis levels in thymocytes were not increased, but apoptosis and cell death levels were increased about 50% by a pharmacologic dose of dexamethasone, a steroid used for the treatment of T-cell leukemias which induces rapid terminal differentiation and death in thymocytes. […]

Notch-1 protein = Notch-1 protein expression in S-oligo treated MEL cells; format: cell-based, mouse; conditions: at 48 hours, three experiments
Method: (§1) The late apoptotic fraction (sub-G1 peak) in cells treated with Lin-12 sense, antisense and scrambled S-oligos in the presence of HMBA was determined by flow cytometry (FIG. 11B). […] The Lin-12 antisense S-oligo, but not the sense or scrambled control, decreased expression of Notch-1 protein by 50-75% at 48 hours in three experiments. […] Actin expression was also unaffected by a transfected 1100 bp construct in a plasmid, as discussed below in Example 11.
Cell pellets were solubilized in hot 2×SDS sample buffer containing 10% β-ME and analyzed by 4% SDS/PAGE. Proteins were electroblotted to Immobilon P (Millipore) in 10 mM CAPS with 10% methanol at 0.75 A for 5 hours. Notch-1 proteins were detected using a chemiluminescence Western blotting kit (Boehringer Mannheim) according to manufacturer's instructions. Relative band intensities were determined by the Kodak 1-D analysis software.

MEL cells [7] = experiment: Late apoptotic fraction (sub-G1 peak) and viability of S-oligo treated MEL cells, flow cytometry; format: cell-based, mouse
Method: as §1
Parental MEL or transfected clones were synchronized for cell cycle analysis experiments by density arrest (Ryan et al., Mol. Cell Biol. 1993, 13:711-719). At this point, cells were plated at 1×10^5 cells/ml in medium containing 5 mM HMBA. For the transfected clones, 700 μg/ml G418 was added to the medium. At 16 hours, cells were harvested, fixed in 1% paraformaldehyde for 15 minutes and then 70% ethanol overnight. Cells were resuspended, at constant cell density, in PI solution (50 μg/ml PI (propidum iodide), 0.1% Triton-X-100, 200 μg/ml RNAase A) for 1 hour at room temperature with mixing. […] The DNA content of cells was determined using a Becton Dickinson FACScan flow cytometer. Cells appearing as a sub-G1 peak were scored as apoptotic. In cell cycle analyses, apoptotic and dead cells were gated out and only the viable population was analyzed.

actin = experiment: Actin levels in S-oligo treated MEL cells; format: cell-based, mouse; conditions: sense, antisense and scrambled compared
Method: as §1

3T3-L1 cells = conditions: Garcés et al. 1997; cited from earlier work

Compound: CC(=O)NCCCCCCCCNCC=O
- Transformed cells HT-29 [1]: +
- Transformed cells MEL [2]: +
- Opt. [ ], μM (Optimal concentration) (Transformed cells): 5,000 μM
- Transformed cells HL-60 [3]: +

Compound: CNC(=O)CCCCCCCCC(=O)NC
- Transformed cells HT-29 [1]: +
- Transformed cells MEL [2]: +
- Opt. [ ], μM (Optimal concentration) (Transformed cells): 5,000 μM
- Transformed cells HL-60 [3]: +

Compound: O=C(CCCCCCCCC(=O)NO)NO
- Transformed cells HT-29 [1]: +
- Transformed cells MEL [2]: +
- Opt. [ ], μM (Optimal concentration) (Transformed cells): 10 to 60 µM
- Transformed cells HL-60 [3]: +

Compound: O=C(/C=C/c1ccc(C(=O)NO)cc1)NO
- Transformed cells HT-29 [1]: +
- Transformed cells MEL [2]: +
- Opt. [ ], μM (Optimal concentration) (Transformed cells): 10 to 60 µM
- Transformed cells HL-60 [3]: +

Compound: O=C(CCCCCNC(=O)Nc1cccc(Cl)c1)NO [3-Cl-UCHA]
- HG cells, % (% of cells hemoglobinized) (MEL cells [4]): 32%
- Opt. [ ], μM (Optimal concentration) (MEL cells [4]): 4.0 µM

Compound: O=C(/C=C/c1cccc(C(=O)NO)c1)NO [CBHA, m-carboxycinnamic acid bishydroxamide]
- HG cells, % (% of cells hemoglobinized) (MEL cells [4]): 73%
- Opt. [ ], μM (Optimal concentration) (MEL cells [4]): 4.0 µM

Compound: CC(=O)NCCCCCCNC(C)=O [HMBA, hexamethylene bisacetamide]
- HG cells, % (% of cells hemoglobinized) (MEL cells [4]): 95%
- Opt. [ ], μM (Optimal concentration) (MEL cells [4]): 5,000 μM
- effect on Notch-1 expression pattern (Notch-1): causing an early increase in Notch-1 followed by a progressive decline
- differentiated (benzidine-positive) cells (MEL cells [5]): 35-45%
- adverse effect of therapy [6]: can result in thrombocytopenia

Compound: CC(=O)O[C@H]1C(=O)[C@@]2(C)[C@H]([C@H](OC(=O)c3ccccc3)[C@]3(O)C[C@H](OC(=O)[C@H](O)[C@@H](NC(=O)c4ccccc4)c4ccccc4)C(C)=C1C3(C)C)[C@]1(OC(C)=O)CO[C@@H]1C[C@@H]2O [Paclitaxel]
- cell survival, antineoplastic agent combined with Notch-1 antisense S-oligos (SY5Y cells): cell survival was decreased to a greater extent

Compound: O=C(CCCCCCC(=O)Nc1ccccc1)NO [SAHA, Suberoylanilide hydroxamic acid]
- HG cells, % (% of cells hemoglobinized) (MEL cells [4]): 68%
- Opt. [ ], μM (Optimal concentration) (MEL cells [4]): 2.5 µM

Compound: O=C(CCCCCCC(=O)NO)NO [SBHA]
- HG cells, % (% of cells hemoglobinized) (MEL cells [4]): 94%
- Opt. [ ], μM (Optimal concentration) (MEL cells [4]): 30 µM

Compound: CC(/C=C/C(=O)NO)=C\[C@@H](C)C(=O)c1ccc(N(C)C)cc1 [TSA]
- HG cells, % (% of cells hemoglobinized) (MEL cells [4]): 80%
- Opt. [ ], μM (Optimal concentration) (MEL cells [4]): 0.075 µM

Compound: C[C@@H]1C[C@H]2[C@@H]3CCC4=CC(=O)C=C[C@]4(C)[C@@]3(F)[C@@H](O)C[C@]2(C)[C@@]1(O)C(=O)CO [dexamethasone]
- increase of apoptosis and cell death levels (thymocytes): about 50%

Compound: CC[C@]1(O)C[C@@H]2CN(CCc3c([nH]c4ccccc34)[C@@](C(=O)OC)(c3cc4c(cc3OC)N(C)[C@H]3[C@@](O)(C(=O)OC)[C@H](OC(C)=O)[C@]5(CC)C=CCN6CC[C@]43[C@@H]65)C2)C1 [vinblastine]
- cell survival, antineoplastic agent combined with Notch-1 antisense S-oligos (SY5Y cells): cell survival was decreased to a greater extent

Compound: AGACTGCGTGCAGTTCTTCCAGG (all phosphorothioate, sugars by position and methylation of C not given here) [Lin-12 antisense S-oligo, phosphorothioate antisense oligo for the Lin/Notch region of Notch-1]
- decrease of Notch-1 protein expression (Notch-1 protein): 50-75%
- late apoptotic fraction (sub-G1 peak) (MEL cells [7]; 25 μM S-oligo in the presence of HMBA, 120 hours): significantly larger effect than either sense (SEN) or scrambled (SCR) controls
- viability (cells within G1, G2/S or M regions) (MEL cells [7]; S-oligo in the presence of HMBA): parallel decrease in viability
- actin levels (actin): No difference in actin levels

Compound: rh11-12: human recombinant Notch-1 EGF-repeats 11 and 12, 6-Histidine tagged, expressed in E. coli
- effect on differentiation of 3T3-L1 cells (3T3-L1 cells): blocked their differentiation
